Test results reported in PubChem BioAssay AID1963854 (Molecular Pharmacology Branch, DTP, NCI, 2024).
Several values for one entry are separate records, joined by “and”; a condition that tells them apart may be missing. Equal entries are not always repeated.

Tested on: 186277-243-T-J2-PDC complex spheroid viability
Assay: Anticancer human tumor 186277-243-T-J2-PDC patient-derived colon adenocarcinoma cell line growth inhibition [POLQ]
Settings: for viability, T/C: stronger effect = lower value
Procedure: Multicellular complex tumor spheroid response to Polymerase (POL) inhibitors (novobiocin, ART-558, RP6685) in combination with a variety of drugs and investigational agents in selected tumor cell lines
The POL inhibitors (novobiocin, ART-558, and RP6685) were evaluated both individually and in combination with standard of care and investigational anticancer small molecules within a complex spheroid model of solid tumors. . Complex spheroids include a stromal component modeled by human endothelial cells (HUVEC) and fibroblasts modeled by human mesenchymal stem cells (MSCs). The concentration ranges selected for each drug and investigational agent were based upon clinically achievable concentrations if the clinical Cmax of the agent was known.
Compounds. The drugs and investigational agents: novobiocin (NSC847541), ART-558 (NSC835418), RP-6685 (NSC848927), peposertib (NSC802822), ceralasertib (NSC780249), elimusertib (NSC800525), camonsertib (NSC841442), AZD-1390 (NSC803789), olaparib (NSC753686), talazoparib (NSC767125), rucaparib (NSC756644), sotorasib (NSC818433), MRTX-1133 (NSC836407), SN-38 (NSC673596), topotecan (NSC609699), epotoside (NSC141540), doxorubicin (NSC123127), gemcitabine (NSC613327), 5-fluorouracil (NSC19893), paclitaxel (NSC125973), vemurafenib (NSC761431), MSA-2 (NSC828583), SN-011 (NSC837082), adavosertib (NSC754352), prexasertib (NSC758257), carboplatin (NSC241240) and oxaliplatin (NSC266046), were obtained from the National Cancer Institute (NCI) Developmental Therapeutics Program Chemical Repository (21). The FDA-approved anticancer drug set is available from the Developmental Therapeutics Program at https://dtp.cancer.gov/organization/dscb/obtaining/. […] The stock solutions were prepared in dimethyl sulfoxide (DMSO, Sigma-Aldrich, St. Louis, MO, cat. D2650), except for the platinum compounds which were prepared in saline (Quality Biological, Gaithersburg, MD, cat. 114-055-101), at 800-fold the tested concentration and stored at -70 degrees C prior to their use. All drugs and investigational agents were tested over a range starting from a high concentration at or near the clinical Cmax and decreasing in half-log increments. If the clinical Cmax for an agent had not been determined, the highest concentration tested was 10 microM, except for SN-38, which was tested at a high concentration of 1 microM.
Cell Culture. All cells were maintained in an incubator at 37 degrees C and 5% CO2 with 95% humidity. The PDC lines were cultured according to standard operating procedures established by the NCI PDMR (https://pdmr.cancer.gov). Table 3 of the manuscript, lists the cell lines along with the number of the three cell types plated to form the mct-spheroids and media for tumor cell growth. After thawing, all PDC lines, except 997537-175-T-J1-PDC and 415267-285-R-J2-PDC, were cultured in Matrigel-coated flasks prepared with a working solution of 1X Ham's F-12 nutrient mix, without supplementation (Thermo Fisher Scientific, cat. 11765054), 100 U/mL penicillin-streptomycin (Thermo Fisher Scientific, cat. 15140122), and 2.5% Matrigel (Corning Inc., Corning, NY, cat. 354248) for the first three passages. The two PDC lines 997537-175-T-J1-PDC and 415267-285-R-J2-PDC were cultured on uncoated flasks. The 857933-349-R-J2-PDC line was cultured in 6C/Colon 1B media containing advanced DMEM/F-12 (Thermo Fisher Scientific, cat. 12634028), 10 mM HEPES (Thermo Fisher Scientific, cat. 15630080), 1X GlutaMAX supplement (Thermo Fisher Scientific, cat. 35050061), 0.1 mg/mL primocin (InvivoGen, San Diego, CA, cat. ant-pm-2), 10% defined fetal bovine serum, heat inactivated (HyClone Laboratories Inc., Logan, UT, cat. SH30070.03HI), 50% L-WRN conditioned media (ATCC, cat. CRL-3276), 1.25 mM N-Acetyl-L-cysteine (Sigma-Aldrich, cat. A9165), 10 mM nicotinamide (Sigma-Aldrich, cat. N0636), 1X B-27 supplement (Thermo Fisher Scientific, cat. 17504044), 1X N-2 supplement (Thermo Fisher Scientific, cat. […]
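Also: spheroids exposed to compounds for seven days.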
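For viability, T/C in this document: 100% = DMSO vehicle control viability.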

## CCc1cc2c(N3CCc4c(cc(Cn5ccnc5)cc4-c4cn(C)nc4C(F)(F)F)C3=O)cc(C)nc2c(OC)n1
Compound 0.0316 µM
  viability, T/C: 100% and 88.7% and 82.3%
Compound 0.1 µM
  viability, T/C: 110% and 93% and 96.3%
Compound 0.316 µM
  viability, T/C: 101% and 96.8% and 86.6%
Compound 1 µM
  viability, T/C: 104% and 106% and 86.8%
Compound 3.16 µM
  viability, T/C: 86% and 109% and 103%
Compound 10 µM
  viability, T/C: 76.3% and 99.6% and 88.1%
Curve of compound
  IC50: > 10 µM

## CC(=O)O[C@H]1C(=O)[C@@]2(C)[C@H]([C@H](OC(=O)c3ccccc3)[C@]3(O)C[C@H](OC(=O)[C@H](O)[C@@H](NC(=O)c4ccccc4)c4ccccc4)C(C)=C1C3(C)C)[C@]1(OC(C)=O)CO[C@@H]1C[C@@H]2O
Compound 0.00949 µM
  viability, T/C: 38.5% and 44.7% and 19.1%
Compound 0.03 µM
  viability, T/C: 10.6% and 11.3% and 5.03%
Compound 0.0949 µM
  viability, T/C: 7.36% and 7.77% and 3.51%
Compound 0.3 µM
  viability, T/C: 5.49% and 5.99% and 2.78%
Compound 0.949 µM
  viability, T/C: 5.37% and 6% and 2.77%
Compound 3 µM
  viability, T/C: 4.97% and 5.56% and 2.45%
Curve of compound
  IC50: < 0.00949 µM

## Cn1ncnc1[C@H]1c2n[nH]c(=O)c3cc(F)cc(c23)N[C@@H]1c1ccc(F)cc1
Compound 0.000316 µM
  viability, T/C: 102% and 96.7% and 107%
Compound 0.001 µM
  viability, T/C: 100% and 97.4% and 94.3%
Compound 0.00316 µM
  viability, T/C: 104% and 101% and 97%
Compound 0.01 µM
  viability, T/C: 118% and 100% and 105%
Compound 0.0316 µM
  viability, T/C: 118% and 137% and 114%
Compound 0.1 µM
  viability, T/C: 109% and 124% and 103%
Curve of compound
  IC50: > 0.1 µM

## COc1ccc([C@@H](O)c2cc(-c3ncnc4cc(N5CCOCC5)ccc34)c(F)cc2Cl)nn1
Compound 0.0316 µM
  viability, T/C: 113% and 93.8% and 106%
Compound 0.1 µM
  viability, T/C: 98% and 93.7% and 97.8%
Compound 0.316 µM
  viability, T/C: 86.5% and 101% and 97.7%
Compound 1 µM
  viability, T/C: 98.4% and 104% (2×)
Compound 3.16 µM
  viability, T/C: 80.8% and 96.9% and 74.1%
Compound 10 µM
  viability, T/C: 31.1% and 61% and 30.1%
Curve of compound
  IC50: 6.45 µM and > 10 µM and 5.93 µM

## COc1cc(C2c3cc4c(cc3C(OC3OC5COC(C)OC5C(O)C3O)C3COC(=O)C23)OCO4)cc(OC)c1O (stereo not given) + Nc1ccc(C#CCN(C(=O)Cc2ncc(C(F)(F)F)cc2C(F)(F)F)c2ccc(F)cc2)nn1
Curve of first compound, second compound 0.0316 µM
  IC50: 4.57 µM
Curve of first compound, second compound 0.1 µM
  IC50: 3.96 µM
Curve of first compound, second compound 0.316 µM
  IC50: 3.19 µM
Curve of first compound, second compound 1 µM
  IC50: 3.74 µM
Curve of first compound, second compound 3.16 µM
  IC50: 3.6 µM
Curve of first compound, second compound 10 µM
  IC50: 2.63 µM
Second compound 0.0316 µM, first compound 0.0316 µM
  viability, T/C: 96.2%
Second compound 0.0316 µM, first compound 0.1 µM
  viability, T/C: 104%
Second compound 0.0316 µM, first compound 0.316 µM
  viability, T/C: 128%
Second compound 0.0316 µM, first compound 1 µM
  viability, T/C: 93.6%
Second compound 0.0316 µM, first compound 3.16 µM
  viability, T/C: 60.5%
Second compound 0.0316 µM, first compound 10 µM
  viability, T/C: 29.7%
Second compound 0.1 µM, first compound 0.0316 µM
  viability, T/C: 93.7%
Second compound 0.1 µM, first compound 0.1 µM
  viability, T/C: 127%
Second compound 0.1 µM, first compound 0.316 µM
  viability, T/C: 137%
Second compound 0.1 µM, first compound 1 µM
  viability, T/C: 86.9%
Second compound 0.1 µM, first compound 3.16 µM
  viability, T/C: 59.7%
Second compound 0.1 µM, first compound 10 µM
  viability, T/C: 28.1%
Second compound 0.316 µM, first compound 0.0316 µM
  viability, T/C: 97.8%
Second compound 0.316 µM, first compound 0.1 µM
  viability, T/C: 106%
Second compound 0.316 µM, first compound 0.316 µM
  viability, T/C: 135%
Second compound 0.316 µM, first compound 1 µM
  viability, T/C: 80%
Second compound 0.316 µM, first compound 3.16 µM
  viability, T/C: 55.9%
Second compound 0.316 µM, first compound 10 µM
  viability, T/C: 28.1%
Second compound 1 µM, first compound 0.0316 µM
  viability, T/C: 92.2%
Second compound 1 µM, first compound 0.1 µM
  viability, T/C: 115%
Second compound 1 µM, first compound 0.316 µM
  viability, T/C: 123%
Second compound 1 µM, first compound 1 µM
  viability, T/C: 79%
Second compound 1 µM, first compound 3.16 µM
  viability, T/C: 58.3%
Second compound 1 µM, first compound 10 µM
  viability, T/C: 28.4%
Second compound 3.16 µM, first compound 0.0316 µM
  viability, T/C: 108%
Second compound 3.16 µM, first compound 0.1 µM
  viability, T/C: 110%
Second compound 3.16 µM, first compound 0.316 µM
  viability, T/C: 125%
Second compound 3.16 µM, first compound 1 µM
  viability, T/C: 74.6%
Second compound 3.16 µM, first compound 3.16 µM
  viability, T/C: 59.8%
Second compound 3.16 µM, first compound 10 µM
  viability, T/C: 24.4%
Second compound 10 µM, first compound 0.0316 µM
  viability, T/C: 109%
Second compound 10 µM, first compound 0.1 µM
  viability, T/C: 116%
Second compound 10 µM, first compound 0.316 µM
  viability, T/C: 102%
Second compound 10 µM, first compound 1 µM
  viability, T/C: 65.9%
Second compound 10 µM, first compound 3.16 µM
  viability, T/C: 52.6%
Second compound 10 µM, first compound 10 µM
  viability, T/C: 24.3%
